These results are taken from PubChem BioAssay AID1919016 (Molecular Pharmacology Branch, DTP, NCI, 2023).

In the test the test system is NCI-H196 complex spheroid growth, percent test/control. In words: Anticancer human tumor NCI-H196 cell line growth inhibition [AhR].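 For all read-outs here: seven days of drug exposure starting three days after plating.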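 For viability, T/C: 100% = DMSO vehicle control wells.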 The following applies: for viability, T/C: stronger effect = lower value. A digest of the protocol:
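Spheroids combined tumor cells with HUVEC endothelial cells and human MSCs as stroma. AhR antagonists were paired with standard or investigational drugs, each dosed in half-log steps down from near clinical Cmax, or from 10 microM where Cmax was unknown.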

The mark [1] stands for this setting: curve of first compound, second compound 0.1 µM.
Setting [2] is: curve of first compound, second compound 0.316 µM.
[3] abbreviates: curve of first compound, second compound 1 µM.
[4] abbreviates: curve of first compound, second compound 3.16 µM.
Where [5] appears, read: curve of first compound, second compound 10 µM.
[6] abbreviates: second compound 0.1 µM, first compound 0.000949 µM.
[7] abbreviates: second compound 0.1 µM, first compound 0.003 µM.
Where [8] appears, read: second compound 0.1 µM, first compound 0.00949 µM.
[9] abbreviates: second compound 0.1 µM, first compound 0.03 µM.
[10] abbreviates: second compound 0.1 µM, first compound 0.0949 µM.
Setting [11] is: second compound 0.1 µM, first compound 0.3 µM.
The mark [12] stands for this setting: second compound 0.316 µM, first compound 0.000949 µM.
Setting [13] is: second compound 0.316 µM, first compound 0.003 µM.
Setting [14] is: second compound 0.316 µM, first compound 0.00949 µM.
Where [15] appears, read: second compound 0.316 µM, first compound 0.03 µM.
Where [16] appears, read: second compound 0.316 µM, first compound 0.0949 µM.
Where [17] appears, read: second compound 0.316 µM, first compound 0.3 µM.
Where [18] appears, read: second compound 1 µM, first compound 0.000949 µM.
The mark [19] stands for this setting: second compound 1 µM, first compound 0.003 µM.
[20] abbreviates: second compound 1 µM, first compound 0.00949 µM.
Setting [21] is: second compound 1 µM, first compound 0.03 µM.
Setting [22] is: second compound 1 µM, first compound 0.0949 µM.
[23] abbreviates: second compound 1 µM, first compound 0.3 µM.
Where [24] appears, read: second compound 3.16 µM, first compound 0.000949 µM.
The mark [25] stands for this setting: second compound 3.16 µM, first compound 0.003 µM.
The mark [26] stands for this setting: second compound 3.16 µM, first compound 0.00949 µM.
Where [27] appears, read: second compound 3.16 µM, first compound 0.03 µM.
[28] abbreviates: second compound 3.16 µM, first compound 0.0949 µM.
Where [29] appears, read: second compound 3.16 µM, first compound 0.3 µM.
The mark [30] stands for this setting: second compound 10 µM, first compound 0.000949 µM.
Where [31] appears, read: second compound 10 µM, first compound 0.003 µM.
Setting [32] is: second compound 10 µM, first compound 0.00949 µM.
The mark [33] stands for this setting: second compound 10 µM, first compound 0.03 µM.
The mark [34] stands for this setting: second compound 10 µM, first compound 0.0949 µM.
Where [35] appears, read: second compound 10 µM, first compound 0.3 µM.

SMILES strings stand for the structures. “And” between values parts separate entries of the source, which are not always exact repeats. Equal entries are not always repeated.

Usually IC50 stands for the concentration needed to halve the response being measured. What is called viability, T/C is the ratio of treated to control. `O=C(c1cc(Cc2n[nH]c(=O)c3ccccc23)ccc1F)N1CCN(C(=O)C2CC2)CC1` + Cc1cncc(-c2nc(NCCc3c[nH]c4ccccc34)c3ncn(C(C)C)c3n2)c1: the IC50 reads like this: under setting [1], above 10000 nM; under setting [2], above 10000 nM; under setting [3], above 10000 nM; under setting [4], above 10000 nM; under setting [5], above 10000 nM. The viability, T/C was 103% (second compound 0.1 µM, first compound 0.0316 µM); 102% (second compound 0.1 µM, first compound 0.1 µM); 96.1% (second compound 0.1 µM, first compound 0.316 µM); 96% (second compound 0.1 µM, first compound 1 µM); 98.8% (second compound 0.1 µM, first compound 3.16 µM); 87.4% (second compound 0.1 µM, first compound 10 µM). Moreover, the viability, T/C (second compound 0.316 µM, first compound 0.0316 µM) was 101%; the viability, T/C (second compound 0.316 µM, first compound 0.1 µM) is 101%; the viability, T/C (second compound 0.316 µM, first compound 0.316 µM) is 103%; the viability, T/C (second compound 0.316 µM, first compound 1 µM) is 94%; the viability, T/C (second compound 0.316 µM, first compound 3.16 µM) was 107%; the viability, T/C (second compound 0.316 µM, first compound 10 µM) is 91.2%. The viability, T/C was 105% (second compound 1 µM, first compound 0.0316 µM); 90.5% (second compound 1 µM, first compound 0.1 µM); 105% (second compound 1 µM, first compound 0.316 µM); 93.4% (second compound 1 µM, first compound 1 µM); 101% (second compound 1 µM, first compound 3.16 µM); 97.7% (second compound 1 µM, first compound 10 µM). The viability, T/C is, setting by setting: (second compound 3.16 µM, first compound 0.0316 µM) 113%; (second compound 3.16 µM, first compound 0.1 µM) 106%; (second compound 3.16 µM, first compound 0.316 µM) 98.1%; (second compound 3.16 µM, first compound 1 µM) 99.7%; (second compound 3.16 µM, first compound 3.16 µM) 103%; (second compound 3.16 µM, first compound 10 µM) 99.6%. The viability, T/C by setting is: (second compound 10 µM, first compound 0.0316 µM) 81.9%; (second compound 10 µM, first compound 0.1 µM) 91.7%; (second compound 10 µM, first compound 0.316 µM) 87.4%; (second compound 10 µM, first compound 1 µM) 88.7%; (second compound 10 µM, first compound 3.16 µM) 86.9%; (second compound 10 µM, first compound 10 µM) 93.8%.
`CCc1c2c(nc3ccc(O)cc13)-c1cc3c(c(=O)n1C2)COC(=O)[C@]3(O)CC` + Cc1ccccc1N=Nc1ccc(NC(=O)c2ccnn2C)c(C)c1: the 50% inhibitory concentration (IC50) was above 300 nM under setting [1]; above 300 nM under setting [2]; above 300 nM under setting [3]; above 300 nM under setting [4]; above 300 nM under setting [5]. Also, the viability, T/C reads like this: under setting [6], 97%; under setting [7], 101%; under setting [8], 103%; under setting [9], 95.3%; under setting [10], 93.3%; under setting [11], 81.2%. Further, the viability, T/C is 96.3% under setting [12]; 103% under setting [13]; 106% under setting [14]; 89.7% under setting [15]; 89.2% under setting [16]; 85.2% under setting [17]. Moreover, the viability, T/C was 89.8% under setting [18]; 106% under setting [19]; 93.8% under setting [20]; 100% under setting [21]; 99.2% under setting [22]; 70.7% under setting [23]. Besides, the viability, T/C was 89.4% under setting [24]; 91.3% under setting [25]; 103% under setting [26]; 88.9% under setting [27]; 82.7% under setting [28]; 74.3% under setting [29]. Moreover, the viability, T/C reads like this: under setting [30], 89%; under setting [31], 108%; under setting [32], 93.3%; under setting [33], 94.9%; under setting [34], 96%; under setting [35], 76.1%.
Consider `CCN(c1cc(-c2ccc(CN3CCOCC3)cc2)cc(C(=O)NCc2c(C)cc(C)[nH]c2=O)c1C)C1CCOCC1`, for which the viability, T/C by setting is: (compound 0.00949 µM) 98.5% and 117% and 104%; (compound 0.03 µM) 103% and 99.6% and 104%; (compound 0.0949 µM) 92.1% and 98.2% and 99.4%; (compound 0.3 µM) 111% and 101% and 107%; (compound 0.949 µM) 110% (2×) and 106%; (compound 3 µM) 104% and 94.1% and 107%. Moreover, the half-inhibitory concentration (IC50) (curve of compound) is above 3000 nM.
Take `CC(C)CC(NC(=O)C(Cc1ccccc1)NC(=O)c1cnccn1)B(O)O` (centres undefined) + CC(CO)NC(=O)c1cc(-c2ccc(Cl)cc2)nn(-c2cnn(C)c2)c1=O: the concentration for half-maximal inhibition (IC50) worked out at 7.64 nM under setting [1]; 8.07 nM under setting [2]; 8.7 nM under setting [3]; 10.6 nM under setting [4]; 8.75 nM under setting [5]. The viability, T/C was 108% under setting [6]; 106% under setting [7]; 37% under setting [8]; 3.54% under setting [9]; 2.43% under setting [10]; 2.49% under setting [11]. For the same compound, the viability, T/C reads like this: under setting [12], 106%; under setting [13], 101%; under setting [14], 41.8%; under setting [15], 2.17%; under setting [16], 2.62%; under setting [17], 1.45%. For the same compound, the viability, T/C under setting [18] is 109%; the viability, T/C under setting [19] was 103%; the viability, T/C under setting [20] was 45.8%; the viability, T/C under setting [21] is 3.07%; the viability, T/C under setting [22] was 1.88%; the viability, T/C under setting [23] is 2.1%. Moreover, the viability, T/C under setting [24] is 118%; the viability, T/C under setting [25] was 113%; the viability, T/C under setting [26] is 54.9%; the viability, T/C under setting [27] was 3.25%; the viability, T/C under setting [28] is 1.7%; the viability, T/C under setting [29] was 1.74%. In addition, the viability, T/C under setting [30] was 112%; the viability, T/C under setting [31] is 116%; the viability, T/C under setting [32] was 45.1%; the viability, T/C under setting [33] is 2.87%; the viability, T/C under setting [34] was 2.23%; the viability, T/C under setting [35] was 2.03%.
In the case of `COc1ccc([C@@H](O)c2cc(-c3ncnc4cc(N5CCOCC5)ccc34)c(F)cc2Cl)nn1`, the viability, T/C (compound 0.0316 µM) was 100% and 96% and 105%; the viability, T/C (compound 0.1 µM) was 97.1% and 92.7% and 93.5%; the viability, T/C (compound 0.316 µM) is 97% and 91.1% and 94.3%; the viability, T/C (compound 1 µM) was 89.2% and 84.2% and 89.9%; the viability, T/C (compound 3.16 µM) was 85.3% and 81.3% and 89.7%; the viability, T/C (compound 10 µM) is 77.3% and 69% and 71.9%. In addition, the concentration for half-maximal inhibition (IC50) (curve of compound) was above 10000 nM.
